This note sets out measurements from paper PMC8148385, “A robust photoluminescence screening assay identifies uracil-DNA glycosylase inhibitors against prostate cancer” (Chemical Science, 2020).

The target in assay [1] is T1, uracil-DNA glycosylase (UDG) (Escherichia coli, UniProt P12295).
T1 construct: gene ung
Briefly: TRES G-quadruplex/iridium probe UDG activity assay with commercial UDG; also fluorescence thermal shift (ca. […] °C). It counts as biochemical.

For assay [2], the target named is T1, uracil-DNA glycosylase (UDG). Described as above. It counts as biochemical. This is another data set of the same source.
Assay [3] deals with T2, uracil-DNA glycosylase (UDG) (Mus musculus, UniProt P97931).
T2 construct: gene Ung; endogenous UDG in RM-1 cell lysates
T2 sequence (P97931 whole entry): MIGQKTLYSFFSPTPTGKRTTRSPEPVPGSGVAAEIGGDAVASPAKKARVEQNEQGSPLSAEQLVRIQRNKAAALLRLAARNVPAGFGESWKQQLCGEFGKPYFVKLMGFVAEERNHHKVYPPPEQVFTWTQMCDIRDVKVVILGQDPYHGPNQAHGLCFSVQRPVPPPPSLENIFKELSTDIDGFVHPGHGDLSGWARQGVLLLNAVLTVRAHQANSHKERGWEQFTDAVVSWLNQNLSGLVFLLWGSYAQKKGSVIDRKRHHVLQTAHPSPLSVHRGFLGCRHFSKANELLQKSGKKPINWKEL
Description: CETSA in RM-1 cell lysates. It counts as cell-based.

Where two headings read alike, the source gives them in different places.

T1 sequence (P12295 2-229): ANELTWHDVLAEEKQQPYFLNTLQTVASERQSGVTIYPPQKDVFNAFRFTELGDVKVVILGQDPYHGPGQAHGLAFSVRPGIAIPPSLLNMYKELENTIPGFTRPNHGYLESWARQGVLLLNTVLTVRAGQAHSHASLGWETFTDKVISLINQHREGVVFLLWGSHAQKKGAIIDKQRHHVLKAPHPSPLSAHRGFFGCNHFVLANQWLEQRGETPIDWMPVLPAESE

Broadly, the IC50 is the concentration that inhibits the measured activity by half. Regarding `O=[N+]([O-])c1ccc(S(=O)(=O)N2/C(=C\c3ccccc3)C(O)(c3ccccc3)c3ccccc32)cc1` (stereo not drawn) [A8], the IC50 in assay [1] came to 1.9 µM.

Consider `O=C(N/N=C/c1ccc([N+](=O)[O-])o1)c1ccc(O)cc1` [S13, nifuroxazide], for which the 50% inhibitory concentration (IC50) in assay [2] was around 4 µM. In assay [3], the “CETSA in RM-1 cell lysates” value was “in the presence of compound A8 and S13, indicating that both of them directly engaged and stabilized UDG”.
